In brackets after ≈: the same amount, converted by molar mass. Bridge positions count the residues as written; N and C are the ends. Peptide text beside a SMILES is read from it.
What was measured:
IPEC-J2 cells = experiment: In vitro cell migration, transwell assay; format: cell-based, porcine; conditions: transwell 8-micron, serum-free DMEM F-12, 5 to 20 µg/mL, 16 h, Hoechst 33342 count; SynPG-1 not significant at higher concentrations
Protocol: A cell line, established from intestinal porcine enterocytes, isolated from the jejunum of a neonatal unsuckled piglet (IPEC-J2 cells, DSMZ), was grown in monolayer culture in Dulbecco’s modified Eagle’s medium (high glucose), supplemented with 10% fetal bovine serum (FBS) from Invitrogen, 100 IU/mL penicillin, and 100 µg/mL streptomycin. Cultures were maintained in a 5% CO2 humidified atmosphere at 37 °C and passaged every 2–3 days, with detachment via the Trypsin-EDTA solution (Sigma).
To evaluate migration of IPEC-J2 cells, 8-micron pore-sized cell culture transwell inserts were used (Millipore Inc, Temecula, CA, USA). A total of 1 × 10^5 cells were plated in the upper inserts of the transwell and placed within 24-well plates, containing serum-free DMEM F-12 in the absence and presence of SynPG-1 or PG-1, at concentrations ranging from 5 µg/mL to 20 µg/mL. After incubation for 16 h, the cells were fixed with 4% (w/v) paraformaldehyde. […] Migration was quantified by cell enumeration through Hoechst 33342 staining of cell nuclei (Thermo Fisher Scientific, Mississauga, ON, Canada). The results are represented as the relative fold increase in migrated cells when compared to the baseline migration of IPEC-J2 cells in serum-free media after 16 h.

MRSP = format: cell-based, Methicillin-resistant Staphylococcus pseudointermedius; conditions: 2 h, pH 7
Protocol: (§1) Veterinary clinical isolates, including Salmonella typhimurium, multi-drug resistant Escherichia coli, methicillin-resistant Staphylococcus aureus (MRSA), and methicillin-resistant Staphylococcus pseudointermedius (MRSP), were kindly provided by Dr. H. Cai (Department of Pathobiology, University of Guelph, ON, Canada). An antibiogram for these strains is available in the supplementary text (Table S1). Gram-negative strains were cultured in Luria−Bertani (LB) broth. Gram-positive strains were cultured in Tryptic soy broth (TSB). Both cultures were grown under aerobic conditions at 37 °C.
(§2) The minimum bactericidal concentration (MBC) of SynPG-1 against the tested pathogens was identified through a broth macrodilution antimicrobial assay as previously described, with some modification. […] The buffer volume was adjusted to accommodate the addition of SynPG-1 and PG-1 so that the final solution volume was 0.5 mL for each tested concentration. Final peptide concentrations ranged from 0.1 µg/mL to 8 µg/mL. PG-1 at the known MBC (2 µg/mL E. coli; 4 µg/mL S. typhimurium; 0.5 µg/mL MRSP; 0.5 µg/mL MRSA) was considered the in-house positive control, while the suspension containing no peptide was considered the negative control. Experimental and control tubes were incubated for 2 h at 37 °C without shaking to allow for bactericidal action to occur. […] Colony numbers from each plate were recorded. […]

MRSA biofilm = experiment: Biofilm inhibition assay, crystal violet; format: cell-based, Methicillin-resistant Staphylococcus aureus; conditions: minimal salt media, 48 h 37 °C static, crystal violet OD 590 nm; p < 0.05 vs control; concentration dependent
Protocol: Plates were placed in a static incubator at 37 °C for 48 h; the time required for untreated wells to form biofilm. After incubation, treated media was removed and wells were rinsed with 155 µL of PBS to remove planktonic cells. After sufficient air drying of wells, 150 µL of 0.1% Crystal violet stain was added to each well and incubated at room temperature for 30 min, after which, dye was removed and wells were rinsed again with 155 µL of PBS. After sufficient drying of wells, 150 µL of 70% ethanol solution was added to each well and incubated at room temperature for 30 min. After 30 min, 100 µL of each well was added to a new 96-well plate and absorbance was measured at an OD of 590 nm.

Escherichia coli = format: cell-based; conditions: 2 h, pH 7
Protocol: as §1, §2

MRSA = format: cell-based, Methicillin-resistant Staphylococcus aureus; conditions: 2 h, pH 7
Protocol: as §1, §2

[1] = Activity after incubation in serum (functional serum stability); format: in vitro ADME, pig
Protocol: To compare serum stability, a similar procedure was utilized, as described in Dong et al., with some modification. Briefly, a solution of 25% pig serum was made by diluting fresh pig serum with phosphate buffer saline (PBS). […] Suspension containing no peptide was considered the negative control. Experimental and control tubes were incubated for up to 7 or 24 h in 37 °C to allow for serum constituent interaction with the peptide. […] Experimental and control tubes were incubated for 2 h at 37 °C without shaking to allow for bactericidal action to occur. […] This experiment was carried out three independent times. […] On the other hand, SynPG-1 maintained strong antimicrobial activity even after 24 h of incubation in serum, indicated through a consistently low mean % growth, as compared to the controls seen in Figure 2b. […] All experiments were conducted three independent times. […] Data represent the mean ± SEM of three experiments. The asterisk represents p < 0.05 when compared with SynPG-1 by two-way ANOVA with a post hoc Tukey test.

CC[C@H](C)[C@H](NC(=O)[C@H](CCCCN)NC(=O)[C@H](CCCNC(=N)N)NC(=O)[C@H](CC(C)C)NC(=O)[C@H](CC(C)C)NC(=O)[C@H](CCCNC(=N)N)NC(=O)[C@H](CCCNC(=N)N)NC(=O)[C@H](CC(C)C)NC(=O)CN)C(=O)N[C@@H](CCCNC(=N)N)C(=O)NCC(=O)N[C@@H](CCCNC(=N)N)C(=O)N[C@@H](Cc1c[nH]c2ccccc12)C(=O)N[C@@H](CCCCN)C(=O)NCC(=O)NCC(=O)NCC(=O)N[C@@H](CCCNC(=N)N)C(=O)NCC(=O)NCC(=O)N[C@@H](CCCNC(=N)N)C(=O)N[C@@H](CC(C)C)C(=O)N[C@H]1CSSC[C@@H](C(=O)N[C@H](C(=O)NCC(=O)N[C@@H](CCCNC(=N)N)C(=O)O)C(C)C)NC(=O)[C@H](C(C)C)NC(=O)[C@@H]2CSSC[C@H](NC(=O)[C@H](Cc3ccc(O)cc3)NC1=O)C(=O)N[C@@H](CCCNC(=N)N)C(=O)N[C@@H](CCCNC(=N)N)C(=O)N[C@@H](CCCNC(=N)N)C(=O)N[C@@H](Cc1ccccc1)C(=O)N2 [SynPG-1, Syn-Protegrin-1] (H-GLRRLLRKIRGRWKGGGRGGRLCYCRRRFCVCVGR-OH; disulfide 23-32, 25-30; N-terminus and C-terminus assumed)
Concentration at which cell migration increased significantly (IPEC-J2 cells): 5 µg/mL
MBC (MRSP): 0.5 (0.09) μg/mL
Concentration at which inhibition of biofilm formation was seen (MRSA biofilm): 2 µg/mL
MBC (Escherichia coli): 2 µg/mL (≈ 0.486 µM)
MBC (MRSA): 0.5 (0.09) μg/mL
Time of incubation in 25% serum for which antimicrobial activity is maintained [1]: ≤ 24 h
Increase in stability in 25% serum versus PG-1 ([1]; 24 h versus 2 h of retained activity in 25% serum): 12 fold

Reference: paper PMC7407491, “The Addition of a Synthetic LPS-Targeting Domain Improves Serum Stability While Maintaining Antimicrobial, Antibiofilm, and Cell Stimulating Properties of an Antimicrobial Peptide” (Biomolecules, 2020)
